Some test systems named below: A549 NSCLC; EKVX NSCLC; IGROV1 ovarian; M14 melanoma; MOLT-4 leukemia; OVCAR-3 ovarian; RPMI-8226 leukemia; SN12C renal; SW-620 colon.
Holding throughout (assay): inhibition of tumour cell growth, NCI panel, 48 h

The structures appear in SMILES notation.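 48-hour exposure; five concentrations; linearly interpolated endpoints. Here, GI50 denotes the concentration required for 50% inhibition of growth. TGI denotes the concentration required for complete inhibition of growth.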

Regarding `CC1CCC2(NC1)OC1CC3[C@@H]4CC=C5C=CCC[C@]5(C)C4CC[C@]3(C)C1C2C` (some centres undefined), the TGI with A549 NSCLC is 58.5 µM; in the experiment with EKVX NSCLC, 55.5 µM; with IGROV1 ovarian, more than 100 µM; with M14 melanoma, 50.9 µM; in the experiment on MOLT-4 leukemia, 66.3 µM; in the experiment with OVCAR-3 ovarian, 80.5 µM. In addition, the TGI in the experiment on RPMI-8226 leukemia turned out to be 46 µM; in the experiment on SN12C renal, 85.8 µM; with SW-620 colon, 41.2 µM.
With `CNS(=O)(=O)NN(C)S(=O)(=O)c1ccc(Cl)cc1`, the TGI with A549 NSCLC, in the experiment on EKVX NSCLC, with IGROV1 ovarian, in the experiment with M14 melanoma, in the experiment on MOLT-4 leukemia and in the experiment with OVCAR-3 ovarian was more than 100 µM each time. In addition, the TGI in the experiment with RPMI-8226 leukemia, in the experiment on SN12C renal and in the experiment with SW-620 colon was more than 100 µM each time.
With `CC1=C(C)CC2(SC1)C(=O)c1ccccc1C2=O`, the TGI in the experiment with A549 NSCLC, in the experiment on IGROV1 ovarian, in the experiment on M14 melanoma, with MOLT-4 leukemia, in the experiment on RPMI-8226 leukemia and with SN12C renal was more than 100 µM in each case. Further, the TGI in the experiment with SW-620 colon was more than 100 µM.
Consider `O=C(CC1(O)C(=O)Nc2ccc(Br)cc21)c1ccc(Cl)cc1` (centres undefined), for which the TGI with A549 NSCLC, in the experiment on EKVX NSCLC, with IGROV1 ovarian, in the experiment with M14 melanoma, with MOLT-4 leukemia and with OVCAR-3 ovarian was more than 100 µM each time. In addition, the TGI with RPMI-8226 leukemia, in the experiment with SN12C renal and in the experiment on SW-620 colon was more than 100 µM in each case.
Take `O=c1[nH]c(=O)n(C2CC(O)C(CO)O2)cc1C(OCC(F)(F)F)OCC(F)(F)F` (centres undefined): the TGI in the experiment on A549 NSCLC, in the experiment with EKVX NSCLC, in the experiment on IGROV1 ovarian, in the experiment on M14 melanoma, in the experiment on MOLT-4 leukemia and with OVCAR-3 ovarian was more than 100 µM in each case. For the same molecule, the TGI in the experiment on RPMI-8226 leukemia, in the experiment with SN12C renal and with SW-620 colon was more than 100 µM throughout.
For the molecule `CN(C)/C=C/c1nnnn1-c1ccc(Cl)cc1`, the GI50 is 30.5 µM with A549 NSCLC; 30.9 µM in the experiment with EKVX NSCLC; 14 µM with IGROV1 ovarian; 5.21 µM with M14 melanoma; 3.51 µM with MOLT-4 leukemia; 3.38 µM with RPMI-8226 leukemia. Further, the figures for the GI50 with SN12C renal and in the experiment with SW-620 colon were 4.69 µM and 10.7 µM, respectively. Moreover, the TGI was more than 100 µM in the experiment on A549 NSCLC; 82.8 µM in the experiment with EKVX NSCLC; more than 100 µM in the experiment with IGROV1 ovarian; 44.1 µM in the experiment with M14 melanoma; more than 100 µM with MOLT-4 leukemia; 18.5 µM in the experiment on RPMI-8226 leukemia. For the same molecule, the TGI in the experiment with SN12C renal was determined as 28.8 µM; with SW-620 colon it was 49.8 µM.
For `CCOC(=O)C(=O)C1C(=O)Nc2ccccc21` (centres undefined), the TGI with A549 NSCLC, in the experiment on EKVX NSCLC, with IGROV1 ovarian, in the experiment on M14 melanoma, with MOLT-4 leukemia and with OVCAR-3 ovarian was more than 100 µM throughout. For the same molecule, the TGI in the experiment with RPMI-8226 leukemia, in the experiment on SN12C renal and with SW-620 colon was more than 100 µM each time.
For the molecule `CC(C)COC(=O)N1N=NC2C3OC(CC3=O)C21` (centres undefined), the TGI was more than 100 µM in the experiment on EKVX NSCLC; more than 31.6 µM in the experiment with IGROV1 ovarian; more than 100 µM with M14 melanoma; more than 100 µM with MOLT-4 leukemia; more than 100 µM in the experiment on OVCAR-3 ovarian; more than 100 µM in the experiment on RPMI-8226 leukemia. Besides, the TGI in the experiment on SN12C renal and in the experiment on SW-620 colon was more than 100 µM throughout.
`O=C1O[C@H](C(Cl)(Cl)Cl)N2CCCC12` (some centres undefined): the TGI with A549 NSCLC, in the experiment on EKVX NSCLC, in the experiment on IGROV1 ovarian, in the experiment with M14 melanoma, in the experiment on MOLT-4 leukemia and in the experiment on OVCAR-3 ovarian was more than 100 µM throughout. The TGI in the experiment with RPMI-8226 leukemia, with SN12C renal and in the experiment on SW-620 colon was more than 100 µM in each case.
In the case of `O=c1[nH]c(-c2ccccc2)nc2ccc(Cl)cc12`, the TGI with A549 NSCLC, in the experiment with EKVX NSCLC, in the experiment with MOLT-4 leukemia, in the experiment on OVCAR-3 ovarian, with RPMI-8226 leukemia and in the experiment with SN12C renal was more than 100 µM throughout. The TGI with SW-620 colon was more than 100 µM.
Turning to `CCNc1c(C(=O)N(CC)CC)c(=O)[nH]c2ncccc12`, the TGI with A549 NSCLC, in the experiment with EKVX NSCLC, in the experiment on IGROV1 ovarian, with M14 melanoma, in the experiment on MOLT-4 leukemia and in the experiment with OVCAR-3 ovarian was more than 100 µM each time. The TGI with RPMI-8226 leukemia, in the experiment with SN12C renal and with SW-620 colon was more than 100 µM in each case.
On to `CS(=O)(=O)N(CCC#N)c1ccc(/C=N/NC(=O)CC(=O)Nc2cccc(Cl)c2)cc1`, for which the TGI with A549 NSCLC, in the experiment on EKVX NSCLC, with IGROV1 ovarian, with M14 melanoma, with MOLT-4 leukemia and with OVCAR-3 ovarian was more than 100 µM each time. The TGI in the experiment with RPMI-8226 leukemia, with SN12C renal and in the experiment with SW-620 colon was more than 100 µM each time.
On to `CCN(CC)c1ccc(N=C2C=CC(=O)c3ncccc32)c(C)c1`, for which the TGI in the experiment on A549 NSCLC is 26.1 µM; in the experiment on EKVX NSCLC, 30.4 µM; with IGROV1 ovarian, 21 µM; in the experiment with M14 melanoma, 13.4 µM; with MOLT-4 leukemia it was 6.14 µM; in the experiment on OVCAR-3 ovarian, 11.4 µM. The TGI with RPMI-8226 leukemia was more than 100 µM; in the experiment on SN12C renal, 20.1 µM; with SW-620 colon it was 7.12 µM.
Take `O=C1CCC2CCc3cccc4oc1c2c34` (centres undefined): the TGI in the experiment on A549 NSCLC, in the experiment on EKVX NSCLC, with IGROV1 ovarian, in the experiment with M14 melanoma, in the experiment with MOLT-4 leukemia and with OVCAR-3 ovarian was more than 100 µM throughout. Also, the TGI in the experiment with RPMI-8226 leukemia, in the experiment with SN12C renal and in the experiment with SW-620 colon was more than 100 µM throughout.
Regarding `Cc1ccc(C(=O)O/N=C2/CCCCC2CN(C)C)cc1` (centres undefined), the TGI in the experiment on A549 NSCLC, with EKVX NSCLC, with IGROV1 ovarian, in the experiment on M14 melanoma, in the experiment on MOLT-4 leukemia and in the experiment with OVCAR-3 ovarian was more than 100 µM in each case. The TGI in the experiment with RPMI-8226 leukemia and in the experiment on SN12C renal was more than 100 µM in each case.
On to `N#CCCN(CCC#N)c1ccc(/C=C2\N=C(COc3ccc(Cl)cc3Cl)OC2=O)cc1`, for which the TGI with A549 NSCLC, in the experiment with EKVX NSCLC, in the experiment with IGROV1 ovarian, with M14 melanoma, in the experiment on MOLT-4 leukemia and with OVCAR-3 ovarian was more than 100 µM throughout. The TGI in the experiment with RPMI-8226 leukemia, in the experiment with SN12C renal and in the experiment on SW-620 colon was more than 100 µM throughout.
With `O=C(O)CNS(=O)(=O)c1ccc(NC(=O)c2ccc(F)cc2)cc1`, the TGI in the experiment with A549 NSCLC, with EKVX NSCLC, in the experiment with IGROV1 ovarian, in the experiment on M14 melanoma, in the experiment with MOLT-4 leukemia and with OVCAR-3 ovarian was more than 100 µM in each case. For the same molecule, the TGI in the experiment with RPMI-8226 leukemia, with SN12C renal and in the experiment with SW-620 colon was more than 100 µM throughout.
For `Cn1ccnc1C(c1nccn1C)C(C)(C)[N+](=O)[O-]`, the TGI in the experiment on A549 NSCLC, in the experiment on EKVX NSCLC, in the experiment with M14 melanoma, with MOLT-4 leukemia, in the experiment on OVCAR-3 ovarian and in the experiment on RPMI-8226 leukemia was more than 100 µM throughout. The TGI with SN12C renal and with SW-620 colon was more than 100 µM throughout.
As to `CCN(CC)CC(=O)/C=C/c1ccc(C)cc1`, the TGI is 60.8 µM in the experiment on A549 NSCLC; 40.4 µM in the experiment with IGROV1 ovarian; 32.2 µM in the experiment on M14 melanoma; more than 100 µM in the experiment with MOLT-4 leukemia; 45.1 µM in the experiment on OVCAR-3 ovarian; more than 100 µM with RPMI-8226 leukemia. For the same molecule, the values for the TGI in the experiment on SN12C renal and with SW-620 colon were 33.4 µM and 30.3 µM, respectively.
Turning to `COc1ccccc1/C=C1\CCC(CNc2ccc(Cl)cc2)C1=O` (centres undefined), the TGI in the experiment with A549 NSCLC amounted to 17 µM; with EKVX NSCLC, 20.2 µM; in the experiment on IGROV1 ovarian, 22.8 µM; in the experiment with M14 melanoma, 9.72 µM; in the experiment on MOLT-4 leukemia, 27.4 µM; in the experiment with OVCAR-3 ovarian, 22.9 µM. The TGI with RPMI-8226 leukemia turned out to be 6.72 µM; in the experiment on SN12C renal it was 26.5 µM; in the experiment with SW-620 colon, 20 µM.
`C=CCC12CCC(=O)C=C1CCC1(C2)OCCO1` (centres undefined): the TGI with A549 NSCLC, with EKVX NSCLC, with IGROV1 ovarian, with M14 melanoma, in the experiment with MOLT-4 leukemia and in the experiment with OVCAR-3 ovarian was more than 100 µM throughout. Further, the TGI with RPMI-8226 leukemia, in the experiment with SN12C renal and in the experiment with SW-620 colon was more than 100 µM throughout.
Regarding `OCCN(CCO)c1cccc(N(CCO)CCO)c1`, the TGI with A549 NSCLC, in the experiment with EKVX NSCLC, in the experiment with M14 melanoma, in the experiment on MOLT-4 leukemia, in the experiment on OVCAR-3 ovarian and in the experiment with RPMI-8226 leukemia was more than 100 µM in each case. Also, the TGI in the experiment with SW-620 colon was more than 100 µM.
In the case of `N=S(=O)(c1ccccc1)c1ccccc1[N+](=O)[O-]` (centres undefined), the TGI in the experiment with A549 NSCLC, in the experiment on EKVX NSCLC, in the experiment with IGROV1 ovarian, with M14 melanoma, with MOLT-4 leukemia and in the experiment on OVCAR-3 ovarian was more than 100 µM each time. For the same molecule, the TGI in the experiment on RPMI-8226 leukemia, with SN12C renal and in the experiment on SW-620 colon was more than 100 µM throughout.

These data come from PubChem BioAssay (NCI).
